# Test results as given in patent publication US10206937B2, “Boronic acid derivatives and therapeutic uses thereof” (Qpex Biopharma, Inc., priority 2014, dated 2019).
# Tested on: strains of Enterobacteriaceae producing various carbapenemases (class A, D and B; 104 strains)
# Test: Antibiotics potentiation by Compound 27 (MIC; meropenem, doripenem, ertapenem, cefepime)
# Format: cell-based
# Settings: + 27 = with Compound 27 at fixed 4 μg/ml
smiles,measurement,setting,value
COc1ccc2c(c1C(=O)O)OB(O)C(Sc1nnc(N)s1)C2 (stereo not shown) [C + 27],MIC,strain CF1012 Citrobacter freundii (KPC-2),X (MIC of less than 1 μg/mL)
same,MIC,strain CF1021 Citrobacter freundii (CMY-type; VIM-1),X (MIC of less than 1 μg/mL)
same,MIC,"strain CF1022 Citrobacter freundii (SHV-12(2be), TEM-OSBL(2b); IMP-8)",X (MIC of less than 1 μg/mL)
same,MIC,"strain CF1023 Citrobacter freundii (SHV-12(2be), TEM-OSBL(2b); CTX-M-3; CMY-34; NDM-1)",X (MIC of less than 1 μg/mL)
same,MIC,strain CL1080 Enterobacter cloacae (IMP-1),Y (MIC of 1 μg/mL to 10 μg/mL)
same,MIC,"strain EA1019 Enterobacter aerogenes (SHV-5, VIM-1)",Y (MIC of 1 μg/mL to 10 μg/mL)
same,MIC,strain EC1007 Escherichia coli (KPC-3),X (MIC of less than 1 μg/mL)
same,MIC,"strain EC1061 Escherichia coli (NDM-1, CMY-6)",X (MIC of less than 1 μg/mL)
same,MIC,"strain EC1062 Escherichia coli (OXA-48, CTX-M-15)",X (MIC of less than 1 μg/mL)
same,MIC,"strain EC1064 Escherichia coli (NDM-1, CMY-6, CTX-M-15)",Z (MIC of greater than 10 μg/mL)
same,MIC,strain EC1065 Escherichia coli (IMP-1),X (MIC of less than 1 μg/mL)
same,MIC,strain EC1068 Escherichia coli (VIM-1),Y (MIC of 1 μg/mL to 10 μg/mL)
same,MIC,strain EC1069 Escherichia coli (CTX-M-27; NDM-1),X (MIC of less than 1 μg/mL)
same,MIC,strain EC1070 Escherichia coli (TEM-OSBL(2b); CMY-42; NDM-5),X (MIC of less than 1 μg/mL)
same,MIC,strain EC1072 Escherichia coli (CTX-M-3; NDM-1),Y (MIC of 1 μg/mL to 10 μg/mL)
same,MIC,strain ECL1004 Enterobacter cloacae (NMC-A),X (MIC of less than 1 μg/mL)
same,MIC,"strain ECL1026 Enterobacter cloacae (KPC-2, TEM-1)",X (MIC of less than 1 μg/mL)
same,MIC,"strain ECL1036 Enterobacter cloacae (KPC-3, TEM-1)",X (MIC of less than 1 μg/mL)
same,MIC,strain ECL1045 Enterobacter cloacae (VIM-1),Y (MIC of 1 μg/mL to 10 μg/mL)
same,MIC,"strain ECL1055 Enterobacter cloacae (KPC-3, TEM)",X (MIC of less than 1 μg/mL)
same,MIC,"strain ECL1057 Enterobacter cloacae (NDM-1, TEM-1, CTX-M-15)",Z (MIC of greater than 10 μg/mL)
same,MIC,"strain ECL1058 Enterobacter cloacae (KPC-3, SHV-11, TEM-1)",X (MIC of less than 1 μg/mL)
same,MIC,"strain ECL1059 Enterobacter cloacae (KPC-3, SHV-12, TEM-1)",X (MIC of less than 1 μg/mL)
same,MIC,"strain ECL1061 Enterobacter cloacae (KPC-3, Hyper AmpC expression)",Y (MIC of 1 μg/mL to 10 μg/mL)
same,MIC,strain ECL1082 Enterobacter cloacae (VIM-1),Y (MIC of 1 μg/mL to 10 μg/mL)
same,MIC,strain ECL1084 Enterobacter cloacae (CTX-M-15; ACT-16; NDM-1),X (MIC of less than 1 μg/mL)
same,MIC,"strain ECL1085 Enterobacter cloacae (SHV-31(2be), TEM-1(2b); CTX-M-15; NDM-1)",X (MIC of less than 1 μg/mL)
same,MIC,"strain ECL1086 Enterobacter cloacae (VIM-31, OXA-48(c))",Y (MIC of 1 μg/mL to 10 μg/mL)
same,MIC,strain ECL1087 Enterobacter cloacae (VIM-1),Y (MIC of 1 μg/mL to 10 μg/mL)
same,MIC,strain ECL1088 Enterobacter cloacae (TEM-1(2b); CTX-M-14; ACT-type; VIM-1),Y (MIC of 1 μg/mL to 10 μg/mL)
same,MIC,strain ECL1089 Enterobacter cloacae (ACT-type; IMP-1),Z (MIC of greater than 10 μg/mL)
same,MIC,strain ECL1090 Enterobacter cloacae (TEM-1(2b); CTX-M-22; ACT-type; IMP-8),Y (MIC of 1 μg/mL to 10 μg/mL)
same,MIC,strain ECL1091 Enterobacter cloacae (VIM-1),Y (MIC of 1 μg/mL to 10 μg/mL)
same,MIC,strain ECL1092 Enterobacter cloacae (TEM-OSBL(2b); ACT-32; VIM-1),X (MIC of less than 1 μg/mL)
same,MIC,strain ECL1093 Enterobacter cloacae (TEM-OSBL(2b); ACT-32; VIM-1),X (MIC of less than 1 μg/mL)
same,MIC,strain ECL1094 Enterobacter cloacae (VIM-1),Y (MIC of 1 μg/mL to 10 μg/mL)
same,MIC,"strain ECL1096 Enterobacter cloacae (CMY-4, VIM-4, OXA-48(c))",X (MIC of less than 1 μg/mL)
same,MIC,"strain ECL1097 Enterobacter cloacae (SHV-31(2be), TEM-OSBL(2b); CTX-M-15; ACT-31; NDM-1)",X (MIC of less than 1 μg/mL)
same,MIC,strain ECL1098 Enterobacter cloacae (TEM-OSBL(2b); DHA-1; ACT-16; NDM-1),X (MIC of less than 1 μg/mL)
same,MIC,strain KP1001 Klebsiella pneumoniae (KPC TEM SHV),Y (MIC of 1 μg/mL to 10 μg/mL)
same,MIC,strain KP1002 Klebsiella pneumoniae (KPC TEM SHV),X (MIC of less than 1 μg/mL)
same,MIC,strain KP1003 Klebsiella pneumoniae (KPC TEM SHV),X (MIC of less than 1 μg/mL)
same,MIC,"strain KP1004 Klebsiella pneumoniae (KPC-2, TEM-1, SHV-11)",X (MIC of less than 1 μg/mL)
same,MIC,strain KP1008 Klebsiella pneumoniae (KPC-2),X (MIC of less than 1 μg/mL)
same,MIC,"strain KP1014 Klebsiella pneumoniae (VIM-1, TEM, SHV)",X (MIC of less than 1 μg/mL)
same,MIC,"strain KP1054 Klebsiella pneumoniae (VIM-1, SHV-11)",X (MIC of less than 1 μg/mL)
same,MIC,"strain KP1059 Klebsiella pneumoniae (VIM-1, SHV-11)",Y (MIC of 1 μg/mL to 10 μg/mL)
same,MIC,"strain KP1061 Klebsiella pneumoniae (KPC-3, SHV-11, TEM-1)",X (MIC of less than 1 μg/mL)
same,MIC,"strain KP1064 Klebsiella pneumoniae (KPC-2, SHV-11, TEM-1)",Y (MIC of 1 μg/mL to 10 μg/mL)
same,MIC,"strain KP1065 Klebsiella pneumoniae (VIM-1, SHV-11)",X (MIC of less than 1 μg/mL)
same,MIC,"strain KP1070 Klebsiella pneumoniae (KPC-2, SHV-11, TEM-1)",X (MIC of less than 1 μg/mL)
same,MIC,"strain KP1074 Klebsiella pneumoniae (KPC-3, SHV-11, TEM)",Z (MIC of greater than 10 μg/mL)
